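Each compound was tested at five concentrations against cells in 96-well plates for 48 hours. TGI denotes the concentration required for complete inhibition of growth.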
Experiments:
Assay in all cases: NCI anticancer screen, dose series, 48 h
[1] = tested on: 786-0 renal
[2] = tested on: A498 renal
[3] = tested on: A549 NSCLC
[4] = tested on: ACHN renal
[5] = tested on: BT-549 breast
[6] = tested on: CAKI-1 renal
[7] = tested on: CCRF-CEM leukemia
[8] = tested on: COLO 205 colon
[9] = tested on: DU-145 prostate
[10] = tested on: EKVX NSCLC
[11] = tested on: HCC-2998 colon
[12] = tested on: HCT-116 colon
[13] = tested on: HCT-15 colon
[14] = tested on: HOP-62 NSCLC
[15] = tested on: HOP-92 NSCLC
[16] = tested on: HS 578T breast
[17] = tested on: HT29 colon
[18] = tested on: IGROV1 ovarian
[19] = tested on: K-562 leukemia
[20] = tested on: KM12 colon
[21] = tested on: LOX IMVI melanoma
[22] = tested on: M14 melanoma
[23] = tested on: MALME-3M melanoma
[24] = tested on: MCF7 breast
[25] = tested on: MDA-MB-231 breast
[26] = tested on: MDA-MB-435
[27] = tested on: MDA-N
[28] = tested on: MOLT-4 leukemia
[29] = tested on: NCI-H226 lung
[30] = tested on: NCI-H23 lung
[31] = tested on: NCI-H460 lung
[32] = tested on: NCI-H522 lung
[33] = tested on: NCI/ADR-RES ovarian
[34] = tested on: OVCAR-3 ovarian
[35] = tested on: OVCAR-4 ovarian
[36] = tested on: OVCAR-5 ovarian
[37] = tested on: OVCAR-8 ovarian
[38] = tested on: PC-3 prostate
[39] = tested on: RPMI-8226 leukemia
[40] = tested on: RXF 393 renal
[41] = tested on: SF-268 CNS
[42] = tested on: SF-295 CNS
[43] = tested on: SF-539 CNS
[44] = tested on: SK-MEL-2 melanoma
[45] = tested on: SK-MEL-28 melanoma
[46] = tested on: SK-MEL-5 melanoma
[47] = tested on: SK-OV-3 ovarian
[48] = tested on: SN12C renal
[49] = tested on: SNB-19 CNS
[50] = tested on: SNB-75 CNS
[51] = tested on: SR leukemia
[52] = tested on: SW-620 colon
[53] = tested on: T-47D breast
[54] = tested on: TK-10 renal
[55] = tested on: U251 CNS
[56] = tested on: UACC-257 melanoma
[57] = tested on: UACC-62 melanoma
[58] = tested on: UO-31 renal
[59] = tested on: HL-60(TB) leukemia

## COc1ccc2c(-c3ccc(O)cc3)c(Oc3ccc(Cl)cc3)c(=O)oc2c1
[1]
  TGI: > 35.1 µM
[2]
  TGI: 22.5 µM
[3]
  TGI: > 29.5 µM
[4]
  TGI: > 37.7 µM
[5]
  TGI: 23.3 µM
[6]
  TGI: 10.2 µM
[7]
  TGI: > 100 µM
[8]
  TGI: > 36.5 µM
[9]
  TGI: 24.7 µM
[10]
  TGI: 12.5 µM
[11]
  TGI: 25.7 µM
[12]
  TGI: > 33.6 µM
[13]
  TGI: 17.6 µM
[14]
  TGI: 44.2 µM
[15]
  TGI: 23.7 µM
[16]
  TGI: 16.8 µM
[17]
  TGI: > 38.1 µM
[18]
  TGI: 9.99 µM
[19]
  TGI: > 57.8 µM
[20]
  TGI: 22.6 µM
[21]
  TGI: > 44.9 µM
[22]
  TGI: 17.9 µM
[23]
  TGI: 13.8 µM
[24]
  TGI: > 23.1 µM
[25]
  TGI: 20.6 µM
[26]
  TGI: 25.7 µM
[27]
  TGI: 23.2 µM
[28]
  TGI: > 29.9 µM
[29]
  TGI: > 43.3 µM
[30]
  TGI: 8.32 µM
[31]
  TGI: 19.8 µM
[32]
  TGI: 6.53 µM
[33]
  TGI: > 46 µM
[34]
  TGI: 12.3 µM
[35]
  TGI: 25.4 µM
[36]
  TGI: 21.4 µM
[37]
  TGI: > 48.8 µM
[38]
  TGI: 24.4 µM
[39]
  TGI: 20.8 µM
[40]
  TGI: 25 µM
[41]
  TGI: 24.6 µM
[42]
  TGI: 23 µM
[43]
  TGI: 28.8 µM
[44]
  TGI: 11.2 µM
[45]
  TGI: 23.1 µM
[46]
  TGI: 10.4 µM
[47]
  TGI: 44.9 µM
[48]
  TGI: 19.2 µM
[49]
  TGI: 24.2 µM
[50]
  TGI: 33.8 µM
[51]
  TGI: > 28.5 µM
[52]
  TGI: > 32 µM
[53]
  TGI: > 100 µM
[54]
  TGI: > 22.7 µM
[55]
  TGI: 20.1 µM
[56]
  TGI: 41 µM
[57]
  TGI: 18.6 µM
[58]
  TGI: 13.6 µM

## CN1C(=O)C23CCCCC2CC1(c1ccccc1)S3 (stereo not drawn)
[1]
  TGI: > 100 µM
[2]
  TGI: > 100 µM
[3]
  TGI: > 100 µM
[4]
  TGI: > 100 µM
[5]
  TGI: > 100 µM
[6]
  TGI: > 100 µM
[8]
  TGI: > 100 µM
[9]
  TGI: > 100 µM
[10]
  TGI: > 100 µM
[12]
  TGI: > 100 µM
[13]
  TGI: > 100 µM
[59]
  TGI: > 100 µM
[14]
  TGI: > 100 µM
[15]
  TGI: > 100 µM
[16]
  TGI: > 100 µM
[17]
  TGI: > 100 µM
[18]
  TGI: > 100 µM
[19]
  TGI: > 100 µM
[20]
  TGI: > 100 µM
[21]
  TGI: > 100 µM
[22]
  TGI: > 100 µM
[23]
  TGI: > 100 µM
[24]
  TGI: > 100 µM
[25]
  TGI: > 100 µM
[26]
  TGI: > 100 µM
[27]
  TGI: > 100 µM
[28]
  TGI: > 100 µM
[29]
  TGI: > 100 µM
[30]
  TGI: > 100 µM
[32]
  TGI: > 100 µM
[33]
  TGI: > 100 µM
[34]
  TGI: > 100 µM
[35]
  TGI: > 100 µM
[36]
  TGI: > 100 µM
[37]
  TGI: > 100 µM
[38]
  TGI: > 100 µM
[39]
  TGI: > 100 µM
[40]
  TGI: > 100 µM
[41]
  TGI: > 100 µM
[42]
  TGI: > 100 µM
[43]
  TGI: > 100 µM
[44]
  TGI: > 100 µM
[45]
  TGI: > 100 µM
[46]
  TGI: > 100 µM
[47]
  TGI: > 100 µM
[48]
  TGI: > 100 µM
[49]
  TGI: > 100 µM
[51]
  TGI: > 100 µM
[52]
  TGI: > 100 µM
[53]
  TGI: > 100 µM
[54]
  TGI: > 100 µM
[55]
  TGI: > 100 µM
[56]
  TGI: 54.5 µM
[57]
  TGI: > 100 µM
[58]
  TGI: > 100 µM

— PubChem BioAssay (NCI)
